Data: US8987258B2 (priority 2008, dated 2015)

Target: T1, SIRT1 (Homo sapiens, UniProt Q96EB6)
T1 sequence (Q96EB6 1-747): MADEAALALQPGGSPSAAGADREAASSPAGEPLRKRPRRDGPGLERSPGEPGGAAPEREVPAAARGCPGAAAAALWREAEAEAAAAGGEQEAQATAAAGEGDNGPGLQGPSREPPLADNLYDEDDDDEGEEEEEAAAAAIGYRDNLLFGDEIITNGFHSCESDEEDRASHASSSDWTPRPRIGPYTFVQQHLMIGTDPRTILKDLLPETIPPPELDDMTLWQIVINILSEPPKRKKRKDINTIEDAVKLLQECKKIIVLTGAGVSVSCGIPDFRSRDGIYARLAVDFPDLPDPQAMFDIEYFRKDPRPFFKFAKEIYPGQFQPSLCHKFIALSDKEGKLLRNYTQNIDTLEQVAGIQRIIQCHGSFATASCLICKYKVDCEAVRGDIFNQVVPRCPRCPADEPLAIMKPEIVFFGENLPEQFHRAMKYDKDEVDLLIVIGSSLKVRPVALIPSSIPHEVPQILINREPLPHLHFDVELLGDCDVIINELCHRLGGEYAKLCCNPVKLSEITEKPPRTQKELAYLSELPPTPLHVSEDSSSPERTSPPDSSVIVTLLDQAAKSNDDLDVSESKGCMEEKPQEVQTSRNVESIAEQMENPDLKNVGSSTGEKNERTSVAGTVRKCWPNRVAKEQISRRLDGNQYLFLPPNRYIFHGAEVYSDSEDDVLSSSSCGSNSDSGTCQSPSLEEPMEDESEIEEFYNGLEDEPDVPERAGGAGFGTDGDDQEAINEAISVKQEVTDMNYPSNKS
Assay: Mass spectrometry based SIRT1 deacetylase activation assay
Format: biochemical
Conditions: for EC1.5 μM: 0.5 μM peptide substrate, 120 μM βNAD+, 10 nM SIRT1, 25 min, 25° C.; for Emax: 25 min, mass spectrometry assay, read-out: % Fold Act. (percent maximum fold activation)
Description: A mass spectrometry based assay was used to identify modulators of SIRT1 activity. The mass spectrometry based assay utilizes a peptide having 20 amino acid residues as follows: Ac-EE-K(biotin)-GQSTSSHSK(Ac)NleSTEG-K(5TMR)-EE-NH2 (SEQ ID NO: 1) wherein K(Ac) is an acetylated lysine residue and Nle is a norleucine. The peptide is labeled with the fluorophore 5TMR (excitation 540 nm/emission 580 nm) at the C-terminus. The sequence of the peptide substrate is based on p53 with several modifications. In addition, the methionine residue naturally present in the sequence was replaced with the norleucine because the methionine may be susceptible to oxidation during synthesis and purification.
The mass spectrometry assay is conducted as follows: 0.5 μM peptide substrate and 120 μM βNAD^+ is incubated with 10 nM SIRT1 for 25 minutes at 25° C. in a reaction buffer (50 mM Tris-acetate pH 8, 137 mM NaCl, 2.7 mM KCl, 1 mM MgCl2, 5 mM DTT, 0.05% BSA). Test compounds may be added to the reaction as described above. […] After the 25 minute incubation with SIRT1, 10 μL of 10% formic acid is added to stop the reaction. Reactions are sealed and frozen for later mass spec analysis. Determination of the mass of the substrate peptide allows for precise determination of the degree of acetylation (i.e. starting material) as compared to deacetylated peptide (product).
A control for inhibition of sirtuin activity is conducted by adding 1 μL of 500 mM nicotinamide as a negative control at the start of the reaction (e.g., permits determination of maximum sirtuin inhibition). A control for activation of sirtuin activity is conducted using 10 nM of sirtuin protein, with 1 μL of DMSO in place of compound, to determine the amount of deacetylation of the substrate at a given timepoint within the linear range of the assay. This timepoint is the same as that used for test compounds and, within the linear range, the endpoint represents a change in velocity.
For the above assay, SIRT1 protein was expressed and purified as follows. […] The protein was expressed by induction with 1 mM IPTG as an N-terminal His-tag fusion protein at 18° C. overnight and harvested at 30,000×g. Cells were lysed with lysozyme in lysis buffer (50 mM Tris-HCl, 2 mM Tris[2-carboxyethyl]phosphine (TCEP), 10 μM ZnCl2, 200 mM NaCl) and further treated with sonication for 10 min for complete lysis. The protein was purified over a Ni-NTA column (Amersham) and fractions containing pure protein were pooled, concentrated and run over a sizing column (Sephadex S200 26/60 global). The peak containing soluble protein was collected and run on an Ion-exchange column (MonoQ). Gradient elution (200 mM-500 mM NaCl) yielded pure protein. This protein was concentrated and dialyzed against dialysis buffer (20 mM Tris-HCl, 2 mM TCEP) overnight. The protein was aliquoted and frozen at −80° C. until further use.

Compound	EC1.5 μM	Emax
O=C(Nc1cccc2c(=O)cc(-c3ccccc3)oc12)c1cscn1 [Compound 200]	C (EC1.5>25 μM)	< 200%
O=C(Nc1cccc2c(=O)cc(-c3cccc(OC(F)(F)F)c3)oc12)c1cscn1 [Compound 202]	C (EC1.5>25 μM)	< 200%
O=C(Nc1cccc2c(=O)cc(-c3cccc(OC(F)(F)F)c3)oc12)c1cnccn1 [Compound 203]	B (EC1.5 1-25 μM)	< 200%
O=C(Nc1ccccn1)c1cccc2c(=O)cc(-c3cccc(OC(F)(F)F)c3)oc12 [Compound 211]	C (EC1.5>25 μM)	< 200%
O=C(Nc1cccc2c(=O)cc(-c3cccc(N4CCOCC4)c3)oc12)c1cscn1 [Compound 212]	B (EC1.5 1-25 μM)	> 200%
O=C(Nc1cccc2c(=O)cc(-c3cccc(N4CCOCC4)c3)oc12)c1ccccn1 [Compound 213]	C (EC1.5>25 μM)	< 200%
O=C(Nc1cccc2c(=O)cc(-c3cccc(N4CCOCC4)c3)oc12)c1cnccn1 [Compound 214]	B (EC1.5 1-25 μM)	< 200%
O=C(Nc1cccc2c(=O)cc(-c3cccnc3)oc12)c1cscn1 [Compound 215, N-(4-oxo-2-(pyridin-3-yl)-4H-chromen-8-yl)thiazole-4-carboxamide]	C (EC1.5>25 μM)	< 200%
O=C(Nc1cccc2c(=O)cc(-c3cccnc3)oc12)c1cnccn1 [Compound 217]	C (EC1.5>25 μM)	< 200%
CS(=O)(=O)c1cccc(-c2cc(=O)c3cccc(NC(=O)c4cnccn4)c3o2)c1 [Compound 219]	C (EC1.5>25 μM)	< 200%
CS(=O)(=O)c1cccc(-c2cc(=O)c3cccc(NC(=O)c4cscn4)c3o2)c1 [Compound 222]	C (EC1.5>25 μM)	< 200%
Cc1cnc(NC(=O)c2cccc3c(=O)cc(-c4ccc(Br)cc4)oc23)s1 [Compound 223]		< 200%
O=C(Nc1cccc2c(=O)cc(-c3ccc(C(F)(F)F)cc3)oc12)c1cscn1 [Compound 228]	C (EC1.5>25 μM)	< 200%
O=C(Nc1cccc2c(=O)cc(-c3ccc(N4CCOCC4)cc3)oc12)c1cscn1 [Compound 229]	C (EC1.5>25 μM)	< 200%
O=C(Nc1cccc2c(=O)cc(-c3ccccc3Br)oc12)c1cscn1 [Compound 231]		> 200%
O=C(Nc1cccc2c(=O)cc(-c3ccc(OC(F)(F)F)cc3)oc12)c1cnccn1 [Compound 233]	C (EC1.5>25 μM)	< 200%
Cc1cnc(NC(=O)c2cccc3c(=O)cc(-c4cccc(C(F)(F)F)c4)oc23)s1 [Compound 235]	C (EC1.5>25 μM)	< 200%
Cc1cnc(NC(=O)c2cccc3c(=O)cc(-c4ccccc4Br)oc23)s1 [Compound 236]		< 200%
Cc1cnc(NC(=O)c2cccc3c(=O)cc(-c4cccnc4)oc23)s1 [Compound 239]	C (EC1.5>25 μM)	< 200%
CS(=O)(=O)c1ccccc1-c1cc(=O)c2cccc(NC(=O)c3ccccn3)c2o1 [Compound 241]	B (EC1.5 1-25 μM)	> 200%

Next, values leading:

EC1.5 μM	Emax	Compound
C (EC1.5>25 μM)	< 200%	O=C(Nc1cccc2c(=O)cc(-c3ccccc3)oc12)c1cnccn1 [Compound 201]
B (EC1.5 1-25 μM)	< 200%	O=C(Nc1cccc2c(=O)cc(-c3cccc(C(F)(F)F)c3)oc12)c1cscn1 [Compound 204, N-(4-oxo-2-(3-(trifluoromethyl)phenyl)-4H-chromen-8-yl)thiazole-4-carboxamide]
C (EC1.5>25 μM)	< 200%	O=C(Nc1cccc2c(=O)cc(-c3cccc(C(F)(F)F)c3)oc12)c1cnccn1 [Compound 205]
C (EC1.5>25 μM)	< 200%	O=C(Nc1nccs1)c1cccc2c(=O)cc(-c3cccc(C(F)(F)F)c3)oc12 [Compound 206]
C (EC1.5>25 μM)	< 200%	O=C(Nc1ccccn1)c1cccc2c(=O)cc(-c3cccc(C(F)(F)F)c3)oc12 [Compound 207]
C (EC1.5>25 μM)	< 200%	O=C(Nc1nccs1)c1cccc2c(=O)cc(-c3cccc(N4CCOCC4)c3)oc12 [Compound 208]
C (EC1.5>25 μM)	< 200%	O=C(Nc1ccccn1)c1cccc2c(=O)cc(-c3cccc(N4CCOCC4)c3)oc12 [Compound 209]
C (EC1.5>25 μM)	< 200%	O=C(Nc1nccs1)c1cccc2c(=O)cc(-c3cccc(OC(F)(F)F)c3)oc12 [Compound 210]
C (EC1.5>25 μM)	< 200%	O=C(Nc1cccc2c(=O)cc(-c3cccnc3)oc12)c1ccccn1 [Compound 216]
B (EC1.5 1-25 μM)	< 200%	CS(=O)(=O)c1cccc(-c2cc(=O)c3cccc(NC(=O)c4ccccn4)c3o2)c1 [Compound 218]
C (EC1.5>25 μM)	< 200%	CS(=O)(=O)c1cccc(-c2cc(=O)c3cccc(C(=O)Nc4nccs4)c3o2)c1 [Compound 220]
C (EC1.5>25 μM)	< 200%	CS(=O)(=O)c1cccc(-c2cc(=O)c3cccc(C(=O)Nc4ccccn4)c3o2)c1 [Compound 221]
C (EC1.5>25 μM)	< 200%	O=C(Nc1cccnc1)c1cccc2c(=O)cc(-c3cccc(C(F)(F)F)c3)oc12 [Compound 224, 4-oxo-N-(pyridin-3-yl)-2-(3-(trifluoromethyl)phenyl)-4H-chromene-8-carboxamide]
C (EC1.5>25 μM)	< 200%	O=C(Nc1cccc2c(=O)cc(-c3cccc(C(F)(F)F)c3)oc12)c1ccccn1 [Compound 225]
C (EC1.5>25 μM)	< 200%	O=C(Nc1cccc2c(=O)cc(-c3cccc(C(F)(F)F)c3)oc12)c1cccnc1 [Compound 226]
A (EC1-5<1.0)	> 200%	O=C(Nc1cccc2c(=O)cc(-c3ccccc3C(F)(F)F)oc12)c1cscn1 [Compound 227, N-(4-oxo-2-(2-(trifluoromethyl)phenyl)-4H-chromen-8-yl)thiazole-4-carboxamide]
	< 200%	O=C(Nc1cccc2c(=O)cc(-c3cccc(Br)c3)oc12)c1cscn1 [Compound 230]
	< 200%	O=C(Nc1cccc2c(=O)cc(-c3ccc(Br)cc3)oc12)c1cscn1 [Compound 232]
A (EC1-5<1.0)	> 200%	O=C(Nc1cccc2c(=O)cc(-c3ccccc3OC(F)(F)F)oc12)c1cnccn1 [Compound 234]
	< 200%	Cc1cnc(NC(=O)c2cccc3c(=O)cc(-c4cccc(Br)c4)oc23)s1 [Compound 237]
C (EC1.5>25 μM)	< 200%	Cc1cnc(NC(=O)c2cccc3c(=O)cc(-c4ccccn4)oc23)s1 [Compound 238]
B (EC1.5 1-25 μM)	> 200%	O=C(Nc1cccc2c(=O)cc(-c3ccccc3N3CCOCC3)oc12)c1cscn1 [Compound 240]
